Our source for the IC50 and melting point values is patent US7094911B2, “Biphenyl and biphenyl-analogous compounds as integrin antagonists” (Bayer Aktiengesellschaft, priority 1998, dated 2006).

As a reminder, the IC50 is the midpoint of a concentration-inhibition curve. What is called melting point is the temperature of the solid-liquid transition.

One data set deals with T1, ανβ3 receptor (Homo sapiens, UniProt P05106+P06756).
T1 construct: ανβ3 from human A375 cells were purified according to a procedure described by Wong et al; endogenous in cells; host or cells: human A375 cells (receptor purified from the cells, detergent-solubilised)
The data set is described as follows: Binding to the αvβ3 receptor (echistatin SPA). To be noted: ανβ3 purified from human A375 cells, labelled echistatin, WGA SPA beads; read-out: avb3 IC50. The procedure:
Biological Investigations a) Binding to the ανβ3 Receptor
10 μl ανβ3 (5 ng) in TBS pH 7.6, 2 mM CaCl2, 1 mM MgCl2, 1% n/octylglucopyranoside; 10 μl of the substance to be tested in TBS pH 7.6, 0.1% dimethylsulfoxide (DMSO), and 45 μl TBS pH 7.6, 2 mM CaCl2, 1 MM MgCl2, 1 mM MnCl2 were each incubated for 1 h at room temperature.

The subject of another data set is smooth muscle cells. The data set is described as follows: Smooth muscle cell (SMC) migration test. The format is cell-based, humans or rats. Conditions: horizontal migration on vitronectin-coated plates, 24 hours; human or rat cells not specified. The method, then:
b) Smooth Muscle Cell (SMC) Migration Test
Smooth muscle cells from humans or rats were used. The migration of the cells was determined in a horizontal measuring arrangement (Falcon).
The horizontal migration was determined in 6-well plates coated with vitronectin (1 μg/cm^2). The cells were suspended in a medium (DMEM:F12/0, 12% BSA-rat smooth muscle cells or MCDB 131 with 0.2% BSA-human smooth muscle cells), inoculated and allowed to grow to confluence. Half of the smooth muscle cell lawn was then scraped off, and the cells were treated with different concentrations of the test compounds. The mixtures were incubated for 24 hours at 37° C. in the presence of 5% CO2 After the incubation, the smooth muscle cell migration was determined by measurement of the migration distance and the cell density of the migrated cells.

The target of the next data set is αvβ3 receptor. Conditions: WO 98/00395, second value; cited from earlier work.

T1 sequence (P06756 31-889 limits assumed): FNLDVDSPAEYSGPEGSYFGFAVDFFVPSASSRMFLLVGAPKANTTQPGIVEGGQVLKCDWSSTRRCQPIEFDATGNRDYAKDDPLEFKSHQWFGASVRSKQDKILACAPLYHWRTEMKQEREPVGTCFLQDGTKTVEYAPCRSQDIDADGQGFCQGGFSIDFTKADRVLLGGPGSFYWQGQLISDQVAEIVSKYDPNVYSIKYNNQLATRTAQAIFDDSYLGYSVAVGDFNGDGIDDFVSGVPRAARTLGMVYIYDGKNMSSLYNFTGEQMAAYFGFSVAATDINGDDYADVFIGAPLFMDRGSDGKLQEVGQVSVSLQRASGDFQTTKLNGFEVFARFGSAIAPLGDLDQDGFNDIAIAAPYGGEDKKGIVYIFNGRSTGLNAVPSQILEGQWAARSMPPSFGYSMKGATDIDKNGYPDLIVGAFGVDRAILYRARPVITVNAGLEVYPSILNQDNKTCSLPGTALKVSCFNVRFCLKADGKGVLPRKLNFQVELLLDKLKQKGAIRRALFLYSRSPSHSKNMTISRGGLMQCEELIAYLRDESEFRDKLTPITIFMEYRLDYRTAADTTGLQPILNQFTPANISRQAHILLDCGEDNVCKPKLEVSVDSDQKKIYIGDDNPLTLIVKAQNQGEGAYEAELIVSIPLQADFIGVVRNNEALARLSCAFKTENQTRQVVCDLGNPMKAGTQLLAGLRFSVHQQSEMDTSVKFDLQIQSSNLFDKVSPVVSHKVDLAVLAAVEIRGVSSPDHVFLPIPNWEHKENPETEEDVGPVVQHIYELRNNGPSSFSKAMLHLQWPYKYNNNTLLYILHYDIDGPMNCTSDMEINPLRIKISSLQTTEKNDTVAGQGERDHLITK
T1 sequence (P06756 891-1048 partner limits assumed): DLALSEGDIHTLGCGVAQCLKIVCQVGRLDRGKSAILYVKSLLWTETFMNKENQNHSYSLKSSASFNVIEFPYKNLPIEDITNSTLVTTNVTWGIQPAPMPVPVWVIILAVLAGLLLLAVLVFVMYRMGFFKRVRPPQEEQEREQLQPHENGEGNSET
T1 sequence (P05106 27-788): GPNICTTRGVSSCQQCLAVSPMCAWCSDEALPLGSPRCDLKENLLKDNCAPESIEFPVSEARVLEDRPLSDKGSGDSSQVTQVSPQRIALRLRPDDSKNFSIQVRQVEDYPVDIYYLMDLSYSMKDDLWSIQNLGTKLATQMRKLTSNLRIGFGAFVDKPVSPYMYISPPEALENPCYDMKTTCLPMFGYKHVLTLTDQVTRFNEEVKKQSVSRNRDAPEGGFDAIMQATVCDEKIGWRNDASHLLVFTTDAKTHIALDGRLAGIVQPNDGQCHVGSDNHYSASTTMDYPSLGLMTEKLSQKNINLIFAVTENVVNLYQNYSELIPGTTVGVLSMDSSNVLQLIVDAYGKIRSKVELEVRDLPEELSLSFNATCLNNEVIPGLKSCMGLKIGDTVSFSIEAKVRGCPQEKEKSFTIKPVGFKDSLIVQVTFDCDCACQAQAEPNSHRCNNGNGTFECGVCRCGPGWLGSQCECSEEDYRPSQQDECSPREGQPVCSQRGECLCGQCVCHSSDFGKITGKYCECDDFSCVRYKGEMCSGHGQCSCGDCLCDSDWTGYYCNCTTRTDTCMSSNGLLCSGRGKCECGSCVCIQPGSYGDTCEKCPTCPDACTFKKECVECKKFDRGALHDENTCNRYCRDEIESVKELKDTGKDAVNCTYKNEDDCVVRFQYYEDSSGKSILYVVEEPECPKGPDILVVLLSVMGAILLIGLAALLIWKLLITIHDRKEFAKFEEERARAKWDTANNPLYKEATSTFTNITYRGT

Regarding `CC1(C)[C@@H]2CC[C@@]1(CS(=O)(=O)N[C@@H](Cc1ccc(-c3cccc(NC(=O)Nc4cccnc4)c3)cc1)C(=O)O)C(=O)C2` [Example 1.73, (2S)-3-[3′-(3-Pyridin-3-yl-ureido)-biphenyl-4-yl]-2-[(S)-campher-10-yl-sulfonylamino]-propanoic acid], the IC50 is 2 nM on ανβ3 receptor and 3 to 40 nM with smooth muscle cells.
On to `CC1(C)C2CCC1(CS(=O)(=O)NC(Cc1ccc(OCCCC(=O)NC(=N)N)cc1)C(=O)O)C(=O)C2` (stereo not shown) [(I)], for which the IC50 on αvβ3 receptor was 0.16 nM.
The molecule `Cc1cc(C)c(S(=O)(=O)N[C@@H](Cc2ccc(-c3cccc(NC(=O)NCc4ccc(C(F)(F)F)cc4)c3)cc2)C(=O)O)c(C)c1` [Example 1.212] displayed a melting point of 154 °C.
As to `COc1ccc(-c2ccc(NC(=O)NCc3ccccc3)cc2)cc1S(=O)(=O)NC(CC(=O)O)c1ccccc1` (stereo not shown) [Example 4.70], the melting point is 150 °C.
As to `Cc1cc(C)c(S(=O)(=O)N[C@@H](Cc2ccc(-c3cccc(NC(=O)c4cccnc4)c3)cc2)C(=O)O)c(C)c1` [Example 19.4], the melting point was more than 240 °C.
Still for that read-out and setting: next, `O=C(O)[C@H](Cc1ccc(-c2cccc(CNc3ccccn3)c2)cc1)NS(=O)(=O)C1CC1` [Example 18.11]: more than 240 °C; `COc1ccc(-c2ccc(NC(=O)N=c3[nH]c4ccccc4[nH]3)cc2)cc1S(=O)(=O)NC(CC(=O)O)c1ccccc1` (stereo not shown) [Example 4.74]: 209 °C; `CCS(=O)(=O)N[C@@H](Cc1ccc(-c2cccc(CNc3ccccn3)c2)cc1)C(=O)O` [Example 18.7]: more than 240 °C.
The same measure, in the same setting: in the case of `O=C(O)[C@H](Cc1ccc(-c2cccc(CNc3ccccn3)c2)cc1)NS(=O)(=O)Cc1ccc(F)cc1` [Example 18.10] it was more than 240 °C.
Same read-out and setting: in the case of `CCCN/C(=N\C#N)Nc1cccc(-c2ccc(C[C@H](NS(=O)(=O)c3c(C)cc(C)cc3C)C(=O)O)cc2)c1` [Example 10.6] it was 184 °C.
For `Cc1cc(C)c(S(=O)(=O)N[C@@H](Cc2ccc(-c3cccc(Nc4c(NCc5ccccn5)c(=O)c4=O)c3)cc2)C(=O)O)c(C)c1` [Example 13.3], the melting point is 214 °C (dec.).
Take `CC1(C)C2CC[C@@]1(CS(=O)(=O)N[C@@H](Cc1ccc(-c3ccc(NC(=O)NCc4ccccn4)cc3)cc1)C(=O)O)C(=O)C2` [Example 1.213]: the melting point was determined as 202 °C.
Still for that read-out and setting: in the case of `COc1ccc(-c2ccc(NC(=O)NC(C)C)cc2)cc1S(=O)(=O)NC(CC(=O)O)c1ccccc1` (stereo not shown) [Example 4.68] it was 115 °C; in that of `Cc1cc(C)c(S(=O)(=O)N[C@@H](Cc2ccc(-c3cccc(NC(=O)Nc4nccs4)c3)cc2)C(=O)O)c(C)c1` [Example 1.198], 212 °C.
`O=C(O)CC(NS(=O)(=O)c1cccc(-c2cccc(Nc3c(NC4CC4)c(=O)c3=O)c2)c1)c1ccccc1` (stereo not shown) [Example 13.7]: the melting point is 214 °C (dec.).
Still for that read-out and setting: next, `Cc1cc(C)c(S(=O)(=O)N[C@@H](Cc2ccc(-c3cccc(NC(=O)Nc4nc5ccc(C)cc5s4)c3)cc2)C(=O)O)c(C)c1` [Example 1.199]: 220 °C; `CS(=O)(=O)N[C@@H](Cc1ccc(-c2cccc(Nc3c(NC4CC4)c(=O)c3=O)c2)cc1)C(=O)O` [Example 13.9]: 210 °C (dec.); `COc1ccc2[nH]/c(=N\C(=O)Nc3cccc(-c4ccc(OC)c(S(=O)(=O)NC(CC(=O)O)c5ccccc5)c4)c3)[nH]c2c1` (stereo not shown) [Example 4.105]: more than 240 °C.
The same measure, in the same setting: next, `CC1(C)[C@H]2CCC1(CS(=O)(=O)N[C@@H](Cc1ccc(-c3cccc(NC4=C(NC5CC5)C(=O)C4O)c3)cc1)C(=O)O)C(=O)C2` (stereo partly shown) [Example 13.5]: 152 °C; `O=C(NCc1ccccc1)Nc1cccc(-c2ccc(C[C@H](NS(=O)(=O)CCCC(F)(F)F)C(=O)O)cc2)c1` [Example 1.161]: 163 °C; `C[C@@H](NS(=O)(=O)c1cccc(-c2cccc(NC(=O)NCC(F)(F)C(F)(F)F)c2)c1)C(=O)O` [Example 4.93]: 112 °C.
In turn, `C[C@@H](NS(=O)(=O)c1cccc(-c2cccc(NC(=O)NCc3ccccn3)c2)c1)C(=O)O` [Example 4.82] returned a melting point of 149 °C.
On the same count and under the same terms, next, `COc1ccc2[nH]/c(=N\C(=O)Nc3cccc(-c4ccc(C[C@H](NS(=O)(=O)c5c(C)cc(C)cc5C)C(=O)O)cc4)c3)[nH]c2c1` [Example 1.188]: 215 °C; `COc1ccc(-c2ccc(NC(=O)NC3CC3)cc2)cc1S(=O)(=O)NC(CC(=O)O)c1ccccc1` (stereo not shown) [Example 4.76]: 234 °C.
Molecule `COc1ccc(-c2cccc(NC(=O)NCCSC(F)(F)F)c2)cc1S(=O)(=O)NC(CC(=O)O)c1ccccc1` (stereo not shown) [Example 4.101] yielded a melting point of more than 240 °C.
With `COc1ccc(-c2cccc(NC(=O)N=c3[nH]cc[nH]3)c2)cc1S(=O)(=O)NC(CC(=O)O)c1ccccc1` (stereo not shown) [Example 4.86], the melting point worked out at 209 °C.
Turning to `O=C(O)CC(NS(=O)(=O)c1cccc(-c2cccc(NC(=O)NCc3ccccn3)c2)c1)c1cccnc1` (stereo not shown) [Example 4.40], the melting point was 176 °C.
On the same count and under the same terms, next, `COc1ccc(-c2ccc(NC(=O)NCCc3ccccn3)cc2)cc1S(=O)(=O)NC(CC(=O)O)c1ccccc1` (stereo not shown) [Example 4.64]: 137 °C; `Cc1cc(C)c(S(=O)(=O)N[C@@H](Cc2ccc(-c3cccc(NC(=O)NCC(F)(F)F)c3)cc2)C(=O)O)c(C)c1` [Example 1.206]: 124 °C.
Molecule `COc1ccc(-c2ccc(NC(=O)NCC(C)C)cc2)cc1S(=O)(=O)NC(CC(=O)O)c1ccccc1` (stereo not shown) [Example 4.72] displayed a melting point of 126 °C.
On the same count and under the same terms, next, `COc1ccc(-c2cccc(NC(=O)N=c3[nH]c4cc(C)c(C)cc4[nH]3)c2)cc1S(=O)(=O)NC(CC(=O)O)c1ccccc1` (stereo not shown) [Example 4.104]: more than 240 °C.
On the same count and under the same terms, in the case of `COc1ccc(-c2cccc(NC(=O)NCC(F)(F)C(F)(F)F)c2)cc1S(=O)(=O)NC(CC(=O)O)c1ccccc1` (stereo not shown) [Example 4.85] it was 147 °C.
For `COc1ccc(-c2cccc(NC(=O)Nc3nncs3)c2)cc1S(=O)(=O)NC(CC(=O)O)c1ccccc1` (stereo not shown) [Example 4.106], the melting point was more than 240 °C.
Still for that read-out and setting: in the case of `COc1ccc(-c2cccc(NC(=O)c3ccc[nH]3)c2)cc1S(=O)(=O)NC(CC(=O)O)c1ccccc1` (stereo not shown) [Example 19.3] it was 234 °C; in that of `COc1ccc(-c2ccc(NC(=O)NCc3ccncc3)cc2)cc1S(=O)(=O)NC(CC(=O)O)c1ccccc1` (stereo not shown) [Example 4.66], 145 °C; in that of `COc1ccc(-c2ccc(NC(=O)Nc3cccnc3)cc2)cc1S(=O)(=O)NC(CC(=O)O)c1ccccc1` (stereo not shown) [Example 4.75], 188 °C.
